# Measured values from patent US12415830B2, “Steroid compound, and use thereof and preparation method therefor” (Chengdu Kanghong Pharmaceutical Co Ltd, priority 2019, dated 2025).
# Where two headings read alike, the source gives them in different places.
# How the values were obtained:
# GABAA1 (α1β2γ2) receptor = molecular target: T1, GABAA1 (α1β2γ2) receptor (Homo sapiens, UniProt P14867+P47870); experiment: Patch-clamp electrophysiology on recombinant GABAA1 receptor in HEK293 cells, with 3 μM GABA; assay type: cell-based; details: for Emax at 0.1 µM: 0.1 μM compound together with 3 μmol GABA; for Emax at 0.1 µM / Emax at 1 µM: read-out: potency: ratio of the peak current on the GABAA1 receptor to the peak current in 100 μmol GABA; for Emax at 1 µM: 1 μM compound together with 3 μmol GABA
# T1 construct: expressed in transfected cells
# T1 sequence (P14867 28-456): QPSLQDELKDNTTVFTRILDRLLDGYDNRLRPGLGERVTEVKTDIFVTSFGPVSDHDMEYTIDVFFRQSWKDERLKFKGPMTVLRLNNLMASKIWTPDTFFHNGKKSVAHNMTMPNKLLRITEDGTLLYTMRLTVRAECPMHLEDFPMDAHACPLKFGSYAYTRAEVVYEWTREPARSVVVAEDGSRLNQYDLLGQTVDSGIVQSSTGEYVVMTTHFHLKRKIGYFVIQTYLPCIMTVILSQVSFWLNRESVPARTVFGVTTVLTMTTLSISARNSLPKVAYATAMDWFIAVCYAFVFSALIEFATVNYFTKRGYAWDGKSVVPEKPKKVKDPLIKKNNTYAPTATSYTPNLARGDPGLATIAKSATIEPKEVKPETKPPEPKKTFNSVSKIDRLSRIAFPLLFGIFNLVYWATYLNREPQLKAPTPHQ
# T1 sequence (P47870 26-512): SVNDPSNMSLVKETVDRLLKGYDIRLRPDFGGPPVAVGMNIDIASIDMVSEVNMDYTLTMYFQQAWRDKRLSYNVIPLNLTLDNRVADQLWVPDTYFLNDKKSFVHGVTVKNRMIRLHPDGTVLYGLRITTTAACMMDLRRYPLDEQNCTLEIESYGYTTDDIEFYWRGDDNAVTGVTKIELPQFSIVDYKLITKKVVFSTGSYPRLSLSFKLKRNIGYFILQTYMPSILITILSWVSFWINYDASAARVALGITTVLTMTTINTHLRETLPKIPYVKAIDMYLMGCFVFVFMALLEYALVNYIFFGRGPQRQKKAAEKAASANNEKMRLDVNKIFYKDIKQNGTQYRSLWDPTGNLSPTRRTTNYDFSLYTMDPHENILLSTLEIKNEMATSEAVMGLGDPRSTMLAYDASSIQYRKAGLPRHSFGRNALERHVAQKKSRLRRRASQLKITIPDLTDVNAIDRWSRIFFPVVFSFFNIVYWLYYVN
# T1 sequence (P18507 40-475 partner): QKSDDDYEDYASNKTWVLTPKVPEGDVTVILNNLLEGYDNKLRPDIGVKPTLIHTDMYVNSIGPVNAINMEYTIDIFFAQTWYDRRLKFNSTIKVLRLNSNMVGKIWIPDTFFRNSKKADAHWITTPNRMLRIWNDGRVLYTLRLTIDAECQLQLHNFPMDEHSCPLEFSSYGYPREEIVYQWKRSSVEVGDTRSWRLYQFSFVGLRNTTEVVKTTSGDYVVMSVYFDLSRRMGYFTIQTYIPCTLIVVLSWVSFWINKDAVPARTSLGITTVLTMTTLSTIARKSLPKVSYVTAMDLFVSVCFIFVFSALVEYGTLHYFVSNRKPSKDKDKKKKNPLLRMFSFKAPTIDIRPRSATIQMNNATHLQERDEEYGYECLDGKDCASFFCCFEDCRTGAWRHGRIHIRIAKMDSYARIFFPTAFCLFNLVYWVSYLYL
# Description: (§1) The present invention applies the two subunits of the recombinant GABAA receptor: α1β2γ2 and α4β3δ to evaluate the potency of the exemplary compounds in vitro by patch-clamp electrophysiology.
# (§2) Extracellular fluid: 140 mM NaCl, 5 mM CsCl, 2 mM CaCl2·2H2O, 1 mM MgCl2·6H2O, 5 mM HEPES, 10 mM D-Glucose, pH=7.4 (NaOH).
# (§3) Intracellular fluid: 130 mM CsCl, 0.1 mM CaCl2·H2O, 2 mM MgCl2·6H2O, 1.1 mM EGTA, 5 mM Na2-ATP, 10 mM HEPES, pH=7.2 (CsOH).
# The HEK293 cells line stably expressing GABAA (α1β2γ2) receptors was cultured in Dulbecco's Modified Eagle Medium (DMEM) supplemented with 10% fetal bovine serum, 800 μg/mL G418, 200 μg/mL Hygromycin B and 100 μg/mL Zeocin. Cells were grown in a humidified incubator at 37° C. with 5% carbon dioxide.
# Before manual patch clamp test, the cells were detached using 0.25%-Trypsin-EDTA solution. Then 8×10^3 cells were plated onto coverslips, and cultured in a 24-well plate (final medium volume: 500 μL) and tested after 18 hours by patch clamp.
# (§4) Glass pipette (BF 150-86-10, Sutter Instruments) was pulled using a micropipette puller (P97, Sutter Instruments). The glass pipette was manipulated using a micro-manipulator (MP285, Sutter Instruments) under the microscope (IX71, Olympus). After touching the cell, a slight suction was applied to achieve high seal resistance (GQ). Fast capacitance (in pF) compensation was made after achieving high seal, and the membrane was broken. Cell capacitance (in pF) compensation was made from whole-cell capacitance compensation after the whole cell mode was achieved. No leak subtraction was made.
# (§5) The test and control solutions flowed into a recording chamber mounted on the stage of an inverted microscope via a gravity-fed solution delivery system. During the experiment, solutions were withdrawn from the recording chamber by vacuum aspiration. Each concentration was tested at multiple times. All tests were performed at room temperature.
# (§6) Whole cell model recorded GABAA1 receptors current experimental protocol was indicated as follows: When sealing, cell was at a holding potential of −70 mV, with gap-free mode to record the peak current. The cell would be applied with 3 μM GABA to active current. After the test articles application for 30 s, each concentration of test articles was applied with 3 μM GABA followed by 2 minutes washout using extracellular solution. Finally, 100 μM GABA was used as a positive control. The data were collected by EPC-10 amplifier and stored in PatchMaster (HEKA) software.
# (§7) The following criteria are used to determine whether the data is acceptable: • (1) Electrode resistance <5MΩ • (2) Seal resistance >1GΩ • (3) The start of access resistance <15 MΩ • (4) The end of access resistance <15 MΩ • (5) No obvious spontaneous current decay. • (6) No obvious current leakage when the membrane potential is-70 mv. 56.6 Data Analysis
# In the detection of GABAA1, the currents of 3 μM GABA and different concentrations of test compounds were respectively normalized to the current of 100 μM GABA
# [formula] and then the activation rate corresponding to each concentration was calculated.
# [formula] and then the activation rate corresponding to each concentration was calculated. Means, Standard Deviation and Standard Error were calculated for each test group. EC50 value was calculated using nonlinear regression: Y=Bottom+(Top−Bottom)/(1+10^((Log EC50−X)×HillSlope))
# To fit data to the concentration-response, EC50 was the concentration giving a half-maximum effect and Hillslope was the Hill coefficient. Curve-fitting and EC50 calculations were performed using Graphpad5.0 software.
# Emax is defined as the ratio of the peak current generated on the GABAA1 receptor to the peak current generated only in 100 μmol of GABA and the ratio is multiplied by 100%. The peak current generated on the GABAA1 receptor is that the exemplary compounds act on the GABAA1 receptor together with 3 μmol GABA.
# GABAA4 (α4β3δ) receptor = molecular target: T2, GABAA4 (α4β3δ) receptor (Homo sapiens, UniProt P28472+P48169); experiment: Patch-clamp electrophysiology, compound alone or with 10 nM GABA (Table 3); assay type: cell-based; details: for Emax: relative to peak current in GABA only
# T2 construct: expressed in transfected cells; host or cells: HEK293 (transient transfection, plasmids 1:1:1)
# T2 sequence (P48169 36-554): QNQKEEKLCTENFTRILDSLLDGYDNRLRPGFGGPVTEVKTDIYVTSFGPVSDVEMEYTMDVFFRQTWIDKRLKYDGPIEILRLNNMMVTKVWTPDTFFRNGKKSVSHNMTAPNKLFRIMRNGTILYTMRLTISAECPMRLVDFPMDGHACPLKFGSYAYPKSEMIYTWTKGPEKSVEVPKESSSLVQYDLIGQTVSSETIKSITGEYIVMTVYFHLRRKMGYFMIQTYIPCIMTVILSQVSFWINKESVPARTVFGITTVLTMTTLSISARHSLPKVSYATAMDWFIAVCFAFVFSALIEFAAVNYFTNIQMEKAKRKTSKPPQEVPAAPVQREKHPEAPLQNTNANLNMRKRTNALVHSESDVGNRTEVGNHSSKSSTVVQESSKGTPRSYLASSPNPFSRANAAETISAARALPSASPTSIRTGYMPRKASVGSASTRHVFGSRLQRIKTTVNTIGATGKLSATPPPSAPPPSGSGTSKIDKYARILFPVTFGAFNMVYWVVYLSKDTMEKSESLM
# T2 sequence (P28472 26-473): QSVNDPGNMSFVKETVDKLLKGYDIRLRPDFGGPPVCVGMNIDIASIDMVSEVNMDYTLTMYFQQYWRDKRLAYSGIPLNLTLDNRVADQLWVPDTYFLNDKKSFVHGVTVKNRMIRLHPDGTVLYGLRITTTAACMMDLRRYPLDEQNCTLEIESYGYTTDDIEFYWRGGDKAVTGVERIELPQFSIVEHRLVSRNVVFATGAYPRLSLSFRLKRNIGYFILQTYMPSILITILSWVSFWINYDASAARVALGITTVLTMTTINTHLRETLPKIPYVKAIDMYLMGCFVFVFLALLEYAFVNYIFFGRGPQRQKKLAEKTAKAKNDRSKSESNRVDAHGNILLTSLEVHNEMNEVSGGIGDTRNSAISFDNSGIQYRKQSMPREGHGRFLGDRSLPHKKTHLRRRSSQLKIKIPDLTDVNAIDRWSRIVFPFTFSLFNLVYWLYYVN
# T2 sequence (O14764 25-452 partner): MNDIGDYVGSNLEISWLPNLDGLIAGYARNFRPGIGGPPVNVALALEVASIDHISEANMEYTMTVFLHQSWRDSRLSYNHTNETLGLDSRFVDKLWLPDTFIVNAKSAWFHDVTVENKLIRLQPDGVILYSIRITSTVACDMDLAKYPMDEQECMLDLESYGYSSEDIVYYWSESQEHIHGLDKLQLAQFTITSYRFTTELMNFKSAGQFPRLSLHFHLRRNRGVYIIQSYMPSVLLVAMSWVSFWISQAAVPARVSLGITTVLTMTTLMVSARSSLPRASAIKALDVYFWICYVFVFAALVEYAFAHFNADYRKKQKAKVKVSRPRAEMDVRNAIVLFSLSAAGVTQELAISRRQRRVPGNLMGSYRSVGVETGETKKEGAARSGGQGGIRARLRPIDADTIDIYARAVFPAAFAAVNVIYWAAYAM
# Description: as §1, §2, §3
# HEK293 cell line was cultured in DMEM containing 10% fetal bovine serum and 5% carbon dioxide at 37° C.
# Cell passage: The old medium was removed, and the cells were washed once with PBS. Then 1 mL 0.25%-Trypsin-EDTA solution was added to digest cells. The culture dish was incubated at 37° C. in pre-warmed incubator for 0.5 minutes. As soon as cells were detached, about 5 mL 37° C. pre-warmed complete medium was added. Cell aggregates were dissociated by gentle pipetting. The cell suspension was transferred into a sterile centrifuge tube and then the cell suspension was be spun at approximately 1000 rpm for 5 minutes. The cells were amplified or maintained by seeding 2.5×10^5 cells in a 6 cm dish (final medium volume: 5 mL). For transfection, 8×10^3 cells were plated onto coverslips, and cultured in a 24-well plate (final medium volume: […]).
# Transfection: Second day, the transfection of GABAA4 (α4, β3, δ plasmid ratio 1:1:1) was performed. The X-tremeGENE HP DAN Transfection Reagents kit were used. The ratio of the plasmid and transfection reagent was 1 μg: 2 μL. The amount of plasmid in the 24-well plate was 0.5 μg per well, and the transfection reagent was 1 μL. The following specific steps were taken for preparing the 12 wells: The 600 μL Opti-MEM was added to a sterile centrifuge tube along with 6 μg of plasmid and was allowed to mix well; Then, the 12 μL of transfection reagent was added, mixed well following 15 min incubation at room temperature. The transfection complex was then inoculated into the cell, 50 μL per well, and the transfection complex was lightly stirred and mixed.
# This mixture was changed on the third day, and the patch-clamp was performed on the fourth day.
# as §4, §5
# as §6, with “GABAA4” for “GABAA1”, “10 nM” for “3 μM”, “10” for “100”
# as §7, with “56.6 Data Analysis” left out
# [1] = with 10 nM GABA, read-out: Emax (with 10 nM GABA)
# [2] = without GABA, read-out: Emax (without GABA)
# [3] = with 10 nM GABA, read-out: EC50 (with 10 nM GABA)
# [4] = without GABA, read-out: EC50 (without GABA)
SMILES,Emax at 0.1 µM (GABAA1 (α1β2γ2) receptor; HEK293),Emax at 1 µM (GABAA1 (α1β2γ2) receptor; HEK293),"EC50 (GABAA4 (α4β3δ) receptor; EC50 (with 10 nM GABA), with 10 nM GABA)","EC50 (GABAA4 (α4β3δ) receptor; EC50 (without GABA), without GABA)",Emax (GABAA4 (α4β3δ) receptor; [1]),Emax (GABAA4 (α4β3δ) receptor; [2]),"Emax (GABAA1 (α1β2γ2) receptor; HEK293, together with 3 μmol GABA, relative to peak current in 100 μmol GABA)",EC50 (GABAA1 (α1β2γ2) receptor; together with 3 μmol GABA),EC50 (GABAA4 (α4β3δ) receptor; [3]),EC50 (GABAA4 (α4β3δ) receptor; [4])
CC(=O)C1CCCC2[C@@H]3CC[C@H]4C[C@H](O)CC[C@]4(C)[C@H]3CC[C@]12C (stereo partly drawn) [KH001],20 to 40%,60 to 80%,132 nM,173 nM,91.7%,103%,,,,
C[C@@]1(O)CC[C@@]2(C)[C@@H](CC[C@@H]3[C@@H]2CC[C@]2(C)[C@@H](C(=O)COc4noc5ccccc45)CCC[C@@H]32)C1 [KH025],0 to 20%,60 to 80%,,,92.5%,84.6%,93.7%,620 nM,572 nM,947 nM
C[C@@]1(O)CC[C@@]2(C)[C@@H](CC[C@@H]3[C@@H]2CC[C@]2(C)[C@@H](C(=O)Cn4nnc(-c5ccccc5)n4)CCC[C@@H]32)C1 [KH039],0 to 20%,60 to 80%,,,125%,121%,,,> 4000 nM,> 4000 nM
C[C@@]1(O)CC[C@@]2(C)[C@@H](CC[C@@H]3[C@@H]2CC[C@]2(C)[C@@H](C(=O)Cn4nccn4)CCC[C@@H]32)C1 [KH043],0 to 20%,20 to 40%,,,,,,,,
Cn1nnnc1SCC(=O)[C@H]1CCC[C@H]2[C@@H]3CC[C@@H]4C[C@](C)(O)CC[C@@H]4[C@H]3CC[C@]12C [KH047],0 to 20%,0 to 20%,,,,,,,,
C[C@@]1(O)CC[C@H]2[C@H](CC[C@@H]3[C@@H]2CC[C@]2(C)[C@@H](C(=O)COc4ncnc5cnc(F)cc45)CCC[C@@H]32)C1 [KH048],0 to 20%,0 to 20%,,,,,,,,
C[C@@]1(O)CC[C@H]2[C@H](CC[C@@H]3[C@@H]2CC[C@]2(C)[C@@H](C(=O)COc4nc[nH]n4)CCC[C@@H]32)C1 [KH051],0 to 20%,0 to 20%,,,,,,,,
C[C@@]1(O)CC[C@H]2[C@H](CC[C@@H]3[C@@H]2CC[C@]2(C)[C@@H](C(=O)Cn4ncnn4)CCC[C@@H]32)C1 [KH052],0 to 20%,0 to 20%,,,,,,,,
